Converted amounts (≈) assume the structure as drawn. The source made the active and inactive calls. The rule behind the calls is not given here.
Columns and labels:
CAKI-1 [1] = assay: In vitro cytotoxic activity was determined against renal cancer (CAKI-1) cell line; type: functional; details: Homo sapiens, read-out: ED50 (the source's name)
SK-MEL-2 [2] = assay: In vitro cytotoxic activity was determined against melanoma cancer (SK-MEL-2) cell line; type: functional; details: Homo sapiens, read-out: ED50 (the source's name)
KB [3] = assay: In vitro cytotoxic activity was determined against epidermoid carcinoma of the nasopharynx (KB) cell line; type: functional; details: Homo sapiens, read-out: ED50 (the source's name)
1A9 = assay: In vitro cytotoxic activity was determined against ovarian cancer (1A9) cell line; type: functional; details: Homo sapiens, read-out: ED50 (the source's name)
SAOS-2 = assay: In vitro cytotoxic activity was determined against osteosarcoma (SaOS-2) cell line; type: functional; details: Homo sapiens, read-out: ED50 (the source's name)
MCF7 [4] = assay: In vitro cytotoxic activity against MCF-7 (human breast cancer) cell line.; type: functional; details: read-out: ED50 (the source's name)
U-87 MG [5] = assay: In vitro cytotoxic activity was determined against glioblastoma (U-87-MG) cell line; Not active; type: functional, cell-based; details: Homo sapiens; U-87MG ATCC
A549 = assay: In vitro cytotoxic activity was determined against lung carcinoma (A549) cell line; type: functional; details: Homo sapiens, read-out: ED50 (the source's name)
U-87 MG [6] = assay: In vitro cytotoxic activity against U-87-MG (glioblastoma) cell line.; type: functional, U-87MG ATCC; details: Homo sapiens, read-out: ED50 (the source's name)
HCT-8 [7] = assay: In vitro cytotoxic activity was determined against ileocecal carcinoma (HCT-8) cell line; type: functional; details: Homo sapiens, read-out: ED50 (the source's name)
HOS = assay: In vitro cytotoxic activity was determined against osteosarcoma ( HOS) cell line; type: functional; details: Homo sapiens, read-out: ED50 (the source's name)
HEL = assay: In vitro cytotoxic activity was determined against embryonic lung fibroblast (HEL) cell line; type: functional; details: Homo sapiens, read-out: ED50 (the source's name)
KB [8] = assay: In vitro cytotoxic activity was determined against drug resistant tumor cell line KB-7d (pleotrophic resistance including MRP multidrug resistant protein); type: functional; details: Homo sapiens, read-out: ED50 (the source's name)
KB [9] = assay: In vitro cytotoxic activity was determined against drug resistant tumor cell line KB-CPT (pleotrophic mechanism including level of topoisomerase I); type: functional; details: Homo sapiens, read-out: ED50 (the source's name)
KB [10] = assay: In vitro cytotoxic activity was determined against drug resistant tumor cell line KB-VIN (expressing P-glycoprotein); type: functional; details: Homo sapiens, read-out: ED50 (the source's name)
CAKI-1 [11] = assay: In vitro cytotoxic activity was determined against renal cancer (CAKI-1) cell line; Not active; type: functional, cell-based; details: Homo sapiens
KB [12] = assay: In vitro cytotoxic activity was determined against epidermoid carcinoma of the nasopharynx (KB) cell line; Not active; type: functional, cell-based; details: Homo sapiens
MCF7 [13] = assay: In vitro cytotoxic activity was determined against breast cancer (MCF-7) cell line; Not active; type: functional, cell-based; details: Homo sapiens
HCT-8 [14] = assay: In vitro cytotoxic activity was determined against ileocecal carcinoma (HCT-8) cell line; Not active; type: functional, cell-based; details: Homo sapiens
SK-MEL-2 [15] = assay: In vitro cytotoxic activity was determined against melanoma cancer (SK-MEL-2) cell line; Not active; type: functional, cell-based; details: Homo sapiens

Row | SMILES | EC50 (CAKI-1 [1]) [µg/mL] | EC50 (SK-MEL-2 [2]) [µg/mL] | EC50 (KB [3]) [µg/mL] | EC50 (1A9) [µg/mL] | EC50 (SAOS-2) [µg/mL] | EC50 (MCF7 [4]) [µg/mL] | ED50 (U-87 MG [5]) | EC50 (A549) [µg/mL] | EC50 (U-87 MG [6]) [µg/mL] | EC50 (HCT-8 [7]) [µg/mL] | EC50 (HOS) [µg/mL] | EC50 (HEL) [µg/mL] | EC50 (KB [8]) [µg/mL] | EC50 (KB [9]) [µg/mL] | EC50 (KB [10]) [µg/mL] | ED50 (CAKI-1 [11]) | ED50 (KB [12]) | ED50 (MCF7 [13]) | ED50 (HCT-8 [14]) | ED50 (SK-MEL-2 [15])
1 | Cc1cc(O)n2c(n1)nc1ccccc12 | > 10 | > 10 | > 10 | > 10 | > 10 | > 10 | inactive | > 10 |  |  |  |  |  |  |  |  |  |  |  | 
2 | Br.COc1ccc2c3c([nH]c2c1)C(C)=NCC3 | > 10 | > 10 | 9.7 | > 10 | 6.8 | 10 |  | 9.8 | 9.8 |  |  |  |  |  |  |  |  |  |  | 
3 | COc1ccc2c(c1)[nH]c1c(C)[n+](C)ccc12.[I-] | 8.9 | 8.4 | 7.2 | 7 | 8.2 | 6.2 |  | 0.9 | 6.2 |  |  |  |  |  |  |  |  |  |  | 
4 | CCOc1ccc2c(c1)[nH]c1c(C)nccc12 | 9 (≈ 39.8 µM) | 9.5 (≈ 42 µM) | 10.2 (≈ 45.1 µM) | 8 (≈ 35.4 µM) | 20 (≈ 88.4 µM) | 5 (≈ 22.1 µM) |  | 5 (≈ 22.1 µM) |  |  |  |  |  |  |  |  |  |  |  | 
5 | CCCCCCCCCCOc1ccc2c(c1)[nH]c1c(C)nccc12 | 5 (≈ 14.8 µM) |  | 2 (≈ 5.91 µM) | 1.4 (≈ 4.14 µM) |  | 3.8 (≈ 11.2 µM) |  | 1.2 (≈ 3.55 µM) | 5.4 (≈ 16 µM) | 4.1 (≈ 12.1 µM) | 6.7 (≈ 19.8 µM) |  |  |  |  |  |  |  |  | 
6 | CCC[n+]1ccc2c([nH]c3cc(OC)ccc32)c1C.[I-] | 15 |  | 5 | 2 |  |  |  | 15 |  |  |  | 9.5 |  |  |  |  |  |  |  | 
7 | CC(=O)Oc1ccc2c(c1)[nH]c1c(C)nccc12 | 10.2 (≈ 42.5 µM) | 5 (≈ 20.8 µM) | 19.5 (≈ 81.2 µM) | 4.5 (≈ 18.7 µM) | > 20 | 7.5 (≈ 31.2 µM) |  | 4.3 (≈ 17.9 µM) |  |  |  |  |  |  |  |  |  |  |  | 
8 | CCCn1c2cc(OC)ccc2c2cc[n+](C)c(C)c21.[I-] | 9.2 | 18 | 1.8 | < 1.3 |  | > 20 |  | 4 | > 20 |  |  | 15 | 35.5 | 3 | > 40 |  |  |  |  | 
9 | COc1ccc2c(c1)[nH]c1c(/C=C/c3ccc([N+](=O)[O-])cc3)nccc12 | 7 (≈ 20.3 µM) | 1 (≈ 2.9 µM) | 0.5 (≈ 1.45 µM) | 0.3 (≈ 0.869 µM) | 0.9 (≈ 2.61 µM) | 1.2 (≈ 3.47 µM) |  | 0.9 (≈ 2.61 µM) | 1.2 (≈ 3.47 µM) |  |  |  |  |  |  |  |  |  |  | 
10 | CCCCCCCCCCCCCCCCOc1ccc2c(c1)[nH]c1c(C)nccc12 |  |  |  | 8 (≈ 18.9 µM) |  |  |  | 5 (≈ 11.8 µM) |  |  | 5 (≈ 11.8 µM) |  |  |  |  | inactive | inactive | inactive | inactive | 
11 | Cc1nccc2c1[nH]c1cc(OC(=O)C34CCC(C)(C(=O)O3)C4(C)C)ccc12 (stereo not drawn) | > 20 | > 20 | > 10 | 19.5 (≈ 51.5 µM) | > 20 | 20 (≈ 52.9 µM) |  | 17 (≈ 44.9 µM) |  |  |  |  |  |  |  |  |  |  |  | 
12 | Cc1[nH]ccc2c1[nH]c1cc(=O)ccc12 [HARMOL] | 9.2 (≈ 46.4 µM) |  | 4.4 (≈ 22.2 µM) | 3.8 (≈ 19.2 µM) |  | 9.2 (≈ 46.4 µM) |  | 6.5 (≈ 32.8 µM) | 4.2 (≈ 21.2 µM) |  |  |  |  |  |  |  |  |  |  | 
13 | COc1ccc2c3ccn(C)c(C)c-3nc2c1 | 7.8 (≈ 34.5 µM) | 10 (≈ 44.2 µM) | 6.4 (≈ 28.3 µM) | 7 (≈ 30.9 µM) | 9.6 (≈ 42.4 µM) | 5.6 (≈ 24.7 µM) |  | 2.7 (≈ 11.9 µM) | 9 (≈ 39.8 µM) |  |  |  |  |  |  |  |  |  |  | 
14 | CCCCn1c2cc(OC)ccc2c2ccnc(C)c21 | 11 (≈ 41 µM) |  | 7.8 (≈ 29.1 µM) | 2.2 (≈ 8.2 µM) |  | 9.5 (≈ 35.4 µM) |  | 6 (≈ 22.4 µM) | 12.3 (≈ 45.8 µM) | > 20 |  |  |  |  |  |  |  |  |  | 
15 | CCCCCCCCC1NC(C(=O)O)Cc2c1[nH]c1cc(OC)ccc21 (stereo not drawn) | > 20 |  | > 20 | > 20 |  |  |  | > 20 |  |  |  |  |  |  |  |  |  |  |  | 
16 | CCC(CC)C1NC(C(=O)O)Cc2c1[nH]c1cc(OC)ccc21 (stereo not drawn) | > 20 |  | 20 (≈ 63.2 µM) | > 20 |  |  |  | > 20 |  |  |  | > 20 |  |  |  |  |  |  |  | 
17 | CCn1c2cc(OC)ccc2c2ccnc(C)c21 | 7.4 (≈ 30.8 µM) |  | 1.8 (≈ 7.49 µM) | 1.8 (≈ 7.49 µM) |  | 5.3 (≈ 22.1 µM) |  | 4.2 (≈ 17.5 µM) | 7.4 (≈ 30.8 µM) | > 20 |  |  |  |  |  |  |  |  |  | 
18 | COc1cc2[nH]c3c(C)nccc3c2cc1Br | 6.7 (≈ 23 µM) | > 20 | 7.9 (≈ 27.1 µM) | 2.3 (≈ 7.9 µM) |  | 14.6 (≈ 50.1 µM) |  | 13.6 (≈ 46.7 µM) | 14 (≈ 48.1 µM) | 16 (≈ 55 µM) | 6.5 (≈ 22.3 µM) |  |  |  |  |  |  |  |  | 
19 | COc1ccc2c3c([nH]c2c1)C(C)N(N=O)CC3 (stereo not drawn) | > 10 | > 10 | 4.7 (≈ 19.2 µM) | > 10 | > 10 | > 10 |  | > 10 | > 10 |  |  |  |  |  |  |  |  |  |  | 
20 | Cc1nccc2c1[nH]c1ccccc12 [HARMAN] | 8 (≈ 43.9 µM) | > 20 | 8.9 (≈ 48.8 µM) | 6.1 (≈ 33.5 µM) |  | 19 (≈ 104 µM) |  | 9.3 (≈ 51 µM) | 19 (≈ 104 µM) |  |  | 9.8 (≈ 53.8 µM) | 16.5 (≈ 90.5 µM) | 15 (≈ 82.3 µM) | 17.5 (≈ 96 µM) |  |  |  |  | 
21 | Cc1nccc2c1[nH]c1cc(OC(C)C)ccc12 | 12.3 (≈ 51.2 µM) |  | 12.8 (≈ 53.3 µM) | 7.9 (≈ 32.9 µM) |  | 11.9 (≈ 49.5 µM) |  | 17 (≈ 70.7 µM) | 16.4 (≈ 68.2 µM) |  | 10.2 (≈ 42.4 µM) |  |  |  |  |  |  |  | inactive | inactive
22 | Br.COc1cc2[nH]c3c(C)nccc3c2cc1Br | 7.3 | 5 | 3.5 | 1.9 | 6.8 | 5.6 |  | 3.9 | 6.7 |  |  |  |  |  |  |  |  |  |  | 
23 | COS(=O)(=O)O.Cc1nccc2c1[nH]c1ccccc12 | > 20 |  | 10.5 | > 20 |  |  |  | > 20 |  |  |  | > 20 |  |  |  |  |  |  |  | 
24 | CCCCCCOc1ccc2c(c1)[nH]c1c(C)nccc12 | 2.2 (≈ 7.79 µM) | > 5 | 2.4 (≈ 8.5 µM) | 1.9 (≈ 6.73 µM) |  | 3.1 (≈ 11 µM) |  | 4.4 (≈ 15.6 µM) | 4.2 (≈ 14.9 µM) | 3.8 (≈ 13.5 µM) | 2.5 (≈ 8.85 µM) |  |  |  |  |  |  |  |  | 
25 | COc1ccc2c3ccnc(C)c3n(C)c2c1 | 5 (≈ 22.1 µM) |  | 2.2 (≈ 9.72 µM) | 1.8 (≈ 7.95 µM) |  | 4.3 (≈ 19 µM) |  | 4.2 (≈ 18.6 µM) | 7.8 (≈ 34.5 µM) | > 20 |  |  |  |  |  |  |  |  |  | 
26 | COc1ccc2c(c1)[nH]c1c(C)nccc12 [HARMINE] | 1.9 (≈ 8.95 µM) | 18.5 (≈ 87.2 µM) | 2.2 (≈ 10.4 µM) | 1.6 (≈ 7.54 µM) |  | 10.5 (≈ 49.5 µM) |  | 2.4 (≈ 11.3 µM) | 14.5 (≈ 68.3 µM) |  |  | 1.9 (≈ 8.95 µM) | 3.7 (≈ 17.4 µM) | 4.3 (≈ 20.3 µM) | 2.5 (≈ 11.8 µM) |  |  |  |  | 

— ChEMBL document CHEMBL1131893, “Antitumor agents 201. Cytotoxicity of harmine and beta-carboline analogs” (1999)
